ChEMBL document CHEMBL1201862, “PubChem BioAssay data set” (2004)
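The compound was tested at five concentrations on cells cultured in 96-well plates, with a 48-hour exposure period. At the GI50, growth is halved.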 Calls of active or inactive are those of the source. Cut-off read from the data, not from the text of the source: active = GI50 up to about 1.1 µM and inactive = higher.

Columns and labels:
Assay in all cases: growth of human tumour cells (NCI), 48 h
[1] = test system: 786-0
[2] = test system: ACHN
[3] = test system: CCRF-CEM
[4] = test system: EKVX
[5] = test system: IGROV-1
[6] = test system: LOX IMVI
[7] = test system: MCF7
[8] = test system: MOLT-4
[9] = test system: NCI-H226
[10] = test system: NCI-H23
[11] = test system: NCI-H460
[12] = test system: NCI-H522
[13] = test system: NCI/ADR-RES
[14] = test system: OVCAR-3
[15] = test system: OVCAR-5
[16] = test system: OVCAR-8
[17] = test system: SF-539
[18] = test system: SK-MEL-28
[19] = test system: T47D
[20] = test system: UACC-257

| SMILES | GI50 [1] | GI50 [2] | GI50 [3] | GI50 [4] | GI50 [5] | GI50 [6] | GI50 [7] | GI50 [8] | GI50 [9] | GI50 [10] | GI50 [11] | GI50 [12] | GI50 [13] | GI50 [14] | GI50 [15] | GI50 [16] | GI50 [17] | GI50 [18] | GI50 [19] | GI50 [20] |
| --- | --- | --- | --- | --- | --- | --- | --- | --- | --- | --- | --- | --- | --- | --- | --- | --- | --- | --- | --- | --- |
| C[Si](C)(c1ccc(C(=O)O)cc1)c1ccc(C(=O)O)cc1 | > 100 µM (inactive) | > 100 µM (inactive) | > 100 µM (inactive) | > 100 µM (inactive) | > 100 µM (inactive) | > 100 µM (inactive) | > 100 µM (inactive) | > 100 µM (inactive) | > 100 µM (inactive) | > 100 µM (inactive) | > 100 µM (inactive) | > 100 µM (inactive) | > 100 µM (inactive) | > 100 µM (inactive) | > 100 µM (inactive) | > 100 µM (inactive) | > 100 µM (inactive) | > 100 µM (inactive) | > 100 µM (inactive) | > 100 µM (inactive) |
| CC(=O)Nc1cc(CN2CCCCC2)c(O)c2ncccc12 | 8.04 µM (inactive) | 17.8 µM (inactive) | 41.5 µM (inactive) | 30.4 µM (inactive) | 28.4 µM (inactive) | 20.2 µM (inactive) | 24.7 µM (inactive) | 10.1 µM (inactive) | 31.7 µM (inactive) | 40.7 µM (inactive) | 11.7 µM (inactive) | 37.3 µM (inactive) | 16.2 µM (inactive) | 25.8 µM (inactive) | 34.8 µM (inactive) | 29.6 µM (inactive) | 58.5 µM (inactive) | 27.3 µM (inactive) | 11.8 µM (inactive) | 24.7 µM (inactive) |
| O=[N+]([O-])C(/C=C(\Cl)[N+](=O)[O-])=C(N1CCCCC1)N1CCCCC1 | 36.6 µM (inactive) | 48.9 µM (inactive) | 13.2 µM (inactive) | > 100 µM (inactive) | 21.9 µM (inactive) | 55.7 µM (inactive) | 0.631 µM (active) | 30.7 µM (inactive) | 56.5 µM (inactive) | 32.9 µM (inactive) | 36.1 µM (inactive) | 58.6 µM (inactive) | 26.9 µM (inactive) | 27.5 µM (inactive) | 95.5 µM (inactive) | 44.8 µM (inactive) | 25.9 µM (inactive) | 70.8 µM (inactive) | 53 µM (inactive) | 25.3 µM (inactive) |
| O=[N+]([O-])c1ccc(-c2nc3ccccc3o2)cc1 | > 100 µM (inactive) | > 100 µM (inactive) | 40.4 µM (inactive) | > 100 µM (inactive) | > 100 µM (inactive) | > 100 µM (inactive) | > 100 µM (inactive) | > 100 µM (inactive) | > 100 µM (inactive) | > 100 µM (inactive) | > 100 µM (inactive) | > 100 µM (inactive) | > 100 µM (inactive) | > 100 µM (inactive) | > 100 µM (inactive) | > 100 µM (inactive) | > 100 µM (inactive) | > 100 µM (inactive) | > 100 µM (inactive) | > 100 µM (inactive) |
| CCCCCCc1cc2cc(-c3cn4c(n3)sc3ccccc34)c(=O)oc2cc1O | > 31.6 µM (inactive) | > 100 µM (inactive) | > 100 µM (inactive) | 99.8 µM (inactive) | > 100 µM (inactive) | > 100 µM (inactive) | > 100 µM (inactive) | > 100 µM (inactive) | > 100 µM (inactive) | > 100 µM (inactive) | > 100 µM (inactive) | > 90.4 µM (inactive) | > 100 µM (inactive) | > 100 µM (inactive) | > 100 µM (inactive) | 5.82 µM (inactive) | > 100 µM (inactive) | 3.39 µM (inactive) | > 100 µM (inactive) | 4.42 µM (inactive) |
| CSc1nc2ccccc2c(=O)n1/N=C1\C(=O)N(CN2CCCCC2)c2ccc(Cl)cc21 | 22.3 µM (inactive) | 28.6 µM (inactive) | 20.6 µM (inactive) | 14.1 µM (inactive) | 13.5 µM (inactive) | 14.2 µM (inactive) | 18.7 µM (inactive) | 12.4 µM (inactive) | 75.9 µM (inactive) | 28.4 µM (inactive) | 22.7 µM (inactive) | 12.2 µM (inactive) | 34.8 µM (inactive) | 59.3 µM (inactive) | 64.6 µM (inactive) | 37.2 µM (inactive) | 37.6 µM (inactive) | 60.5 µM (inactive) | 13.3 µM (inactive) | 20.4 µM (inactive) |
| O=C(Cc1ccc(Cl)c(Cl)c1)NCCCN1CCN(CCCN2CCCCC2)CC1 | 16.4 µM (inactive) | 27.2 µM (inactive) | 16 µM (inactive) | 19.2 µM (inactive) | 27.1 µM (inactive) | 14.1 µM (inactive) | 18.5 µM (inactive) | 10.9 µM (inactive) | 21.7 µM (inactive) | 19.8 µM (inactive) | 16.6 µM (inactive) | 15.7 µM (inactive) | > 100 µM (inactive) | 25.5 µM (inactive) | 20 µM (inactive) | 27.6 µM (inactive) | 14.2 µM (inactive) | 2.56 µM (inactive) | 20.3 µM (inactive) | 5.26 µM (inactive) |
| CC1=C(C(=O)N(C)c2ccc(Cl)c(C(=O)OC(C)C)c2)SCCO1 | > 100 µM (inactive) | 61.5 µM (inactive) | > 100 µM (inactive) | 41.8 µM (inactive) | 98.6 µM (inactive) | > 100 µM (inactive) | 66.5 µM (inactive) | 38.5 µM (inactive) | 44.6 µM (inactive) | 44.2 µM (inactive) | > 100 µM (inactive) | 44.9 µM (inactive) | 26.7 µM (inactive) | > 100 µM (inactive) | > 100 µM (inactive) | 70.6 µM (inactive) | > 100 µM (inactive) | > 100 µM (inactive) | 31.2 µM (inactive) | 43.3 µM (inactive) |
| O=[N+]([O-])C(C(Cl)=C(Cl)Cl)=C(N(Cc1ccccc1)Cc1ccccc1)N(Cc1ccccc1)Cc1ccccc1 | 48.8 µM (inactive) | 82 µM (inactive) | 22.2 µM (inactive) | 66.7 µM (inactive) | 45.1 µM (inactive) | 32.4 µM (inactive) | > 100 µM (inactive) | > 100 µM (inactive) | 36.6 µM (inactive) | > 100 µM (inactive) | 56.9 µM (inactive) | > 100 µM (inactive) | > 100 µM (inactive) | > 100 µM (inactive) | 30.2 µM (inactive) | > 100 µM (inactive) | 30.3 µM (inactive) | > 100 µM (inactive) | > 100 µM (inactive) | > 100 µM (inactive) |
| COc1cc(C2c3cc4c(cc3OC(NNS(=O)(=O)c3ccc(C)cc3)C2C)OCO4)cc(OC)c1OC (stereo not given) | 7.76 µM (inactive) | 3 µM (inactive) | 1.01 µM (active) | 2.05 µM (inactive) | 2.68 µM (inactive) | 1.87 µM (inactive) | 1.48 µM (inactive) | 1.89 µM (inactive) | 3.14 µM (inactive) | 4.8 µM (inactive) | 2.13 µM (inactive) | 1.25 µM (inactive) | 3.24 µM (inactive) | 1.26 µM (inactive) | 9.14 µM (inactive) | 8.91 µM (inactive) | 0.984 µM (active) | 2.94 µM (inactive) | 3.48 µM (inactive) | 3.21 µM (inactive) |
| Brc1c2c(c(Br)c3nsnc13)N=S=N2 | 15.6 µM (inactive) | 24.7 µM (inactive) | 2.65 µM (inactive) | 27.2 µM (inactive) | 23.5 µM (inactive) | 3.84 µM (inactive) | 24.2 µM (inactive) | 17.9 µM (inactive) | > 46.9 µM (inactive) | 23.3 µM (inactive) | 25.3 µM (inactive) | 23.4 µM (inactive) | 26.7 µM (inactive) | 20.9 µM (inactive) | 27.6 µM (inactive) | 25.6 µM (inactive) | 22.7 µM (inactive) | 37.5 µM (inactive) | 27.7 µM (inactive) | 42.4 µM (inactive) |
| O=C(NN1C(=O)C=CC1=O)c1ccccc1Nc1ccccc1C(=O)NN1C(=O)C=CC1=O | > 100 µM (inactive) | > 100 µM (inactive) | > 100 µM (inactive) | > 100 µM (inactive) | > 100 µM (inactive) | > 100 µM (inactive) | > 100 µM (inactive) | > 100 µM (inactive) | > 100 µM (inactive) | > 100 µM (inactive) | > 100 µM (inactive) | > 100 µM (inactive) | > 100 µM (inactive) | > 100 µM (inactive) | > 100 µM (inactive) | > 100 µM (inactive) | > 100 µM (inactive) | > 100 µM (inactive) | > 100 µM (inactive) | > 100 µM (inactive) |
| c1ccc2sc(C3(N4CCC5(CC4)OCCO5)CCCCC3)cc2c1 | 99.1 µM (inactive) | > 100 µM (inactive) | 29 µM (inactive) | > 100 µM (inactive) | > 100 µM (inactive) | > 100 µM (inactive) | 29.4 µM (inactive) | 29.2 µM (inactive) | 18.6 µM (inactive) | > 100 µM (inactive) | 48.5 µM (inactive) | 78 µM (inactive) | > 100 µM (inactive) | > 100 µM (inactive) | 55.5 µM (inactive) | > 100 µM (inactive) | > 100 µM (inactive) | > 100 µM (inactive) | > 100 µM (inactive) | 60.1 µM (inactive) |
| c1ccc(CN2CCC(=NN3CCCCC3)CC2)cc1 | > 100 µM (inactive) | > 100 µM (inactive) | 31.8 µM (inactive) | > 100 µM (inactive) | > 100 µM (inactive) | 70.6 µM (inactive) | 43.3 µM (inactive) | 39.4 µM (inactive) | > 100 µM (inactive) | 78.2 µM (inactive) | 46.6 µM (inactive) | 54.6 µM (inactive) | > 100 µM (inactive) | 44.2 µM (inactive) | > 100 µM (inactive) | 65.2 µM (inactive) | > 100 µM (inactive) | > 100 µM (inactive) | 37.1 µM (inactive) | 47.1 µM (inactive) |
